Measurements reported in PMC9374667 (Communications Biology, 2022).
Where “and” joins values, the source holds several entries; their conditions need not be identical. Equal values may be shown once.

Assays:
Type in all cases: in vivo
[1] = test system: db/db mice; assay: Body weight of db/db mice during 35-day treatment; details: db/db mice; for Average body weight gain: day 35, mean ± SD; for Body weight gain in 5 weeks: individual mice
Protocol: (§1) The lean wild type control and the db/db control mice were given equal vehicle volume (0.5% CMC-Na solution). All mice were monitored for food intake, body weight, and fasting blood glucose during the 35-day trial. Glucose tolerance test (GTT) and insulin resistance test (ITT) were performed at 4 and 5 weeks of treatment, respectively. Metabolic analysis was performed at 5 weeks of treatment. At the end of the study, blood samples were taken through the retroorbital venous sinus of mice, fat depots (brown fat, inguinal subcutaneous fat, epididymal fat, perirenal fat and mesenteric fat depot) were dissected, weighed, and immediately frozen in liquid nitrogen and stored at −80 °C until required. Weight of fat depots are expressed in percentage (fat depots weight /bodyweight * 100%).

[2] = test system: db/db mice; assay: Serum ASAT, ALAT, BUN and Cr (toxicity) in db/db mice
[3] = test system: db/db mice; assay: Fat depots weight (BAT, iWAT, eWAT; percentage of body weight); set-up: key to BAT fat depot weight (Figure 4c): % of body weight (fat depot weight / body weight * 100%); details: db/db mice; for eWAT fat depot weight (Figure 4c) / iWAT fat depot weight (Figure 4c): in %; for Fat depots weight / body weight: individual mice
Protocol: as §1

[4] = BJ 75mg/kg, individual mice 1-10
[5] = BJ 150mg/kg, individual mice 1-10

CC(C)Cc1ccc(C(C)C(=O)[O-])cc1.COc1ccc2cc3[n+](cc2c1OC)CCc1cc2c(cc1-3)OCO2.O.O.O.O [BJ, berberine-ibuprofen]
Body weight ([1]; 75 mg/kg gavage once per day, day 1, individual mice, 75 mg/kg): 42 grams and 38 grams and 33 grams and 41 grams and 34 grams and 40 grams | Body weight ([1]; 75 mg/kg gavage once per day, day 4, individual mice, 75 mg/kg): 44 grams and 40 grams and 36 grams and 41 grams and 39 grams and 42 grams | Body weight ([1]; 75 mg/kg gavage once per day, day 7, individual mice, 75 mg/kg): 45 grams and 40 grams and 41 grams and 35 grams and 43 grams and 36 grams | Body weight ([1]; 75 mg/kg gavage once per day, day 10, individual mice, 75 mg/kg): 43 grams and 40 grams and 42 grams and 35 grams and 44 grams and 36 grams | Body weight ([1]; 75 mg/kg gavage once per day, day 13, individual mice, 75 mg/kg): 45 grams and 42 grams and 43 grams and 35 grams and 37 grams and 41 grams and 44 grams | Body weight ([1]; 75 mg/kg gavage once per day, day 16, individual mice, 75 mg/kg): 44 grams and 42 grams and 37 grams and 46 grams and 39 grams | Body weight ([1]; 75 mg/kg gavage once per day, day 19, individual mice, 75 mg/kg): 47 grams and 42 grams and 46 grams and 38 grams and 48 grams and 37 grams and 44 grams and 45 grams and 41 grams | Body weight ([1]; 75 mg/kg gavage once per day, day 22, individual mice, 75 mg/kg): 49 grams and 44 grams and 48 grams and 39 grams and 38 grams and 46 grams and 47 grams and 42 grams | Body weight ([1]; 75 mg/kg gavage once per day, day 25, individual mice, 75 mg/kg): 50 grams and 45 grams and 49 grams and 40 grams and 48 grams and 38 grams and 46 grams and 42 grams | Body weight ([1]; 75 mg/kg gavage once per day, day 28, individual mice, 75 mg/kg): 50 grams and 46 grams and 40 grams and 49 grams and 45 grams and 47 grams and 41 grams | Body weight ([1]; 75 mg/kg gavage once per day, day 31, individual mice, 75 mg/kg): 53 grams and 47 grams and 52 grams and 40 grams and 50 grams and 41 grams and 43 grams | Body weight ([1]; 75 mg/kg gavage once per day, day 34, individual mice, 75 mg/kg): 52 grams and 47 grams and 44 grams and 51 grams and 43 grams and 50 grams and 45 grams and 48 grams | Average body weight gain ([1]; 75 mg/kg gavage once per day): 9.4 ± 2.7 g | Body weight gain in 5 weeks ([1]; 75 mg/kg gavage once per day, 75 mg/kg): 7 grams and 10 grams and 9 grams and 14 grams and 11 grams | Body weight ([1]; 150 mg/kg gavage once per day, day 1, individual mice, 150 mg/kg): 38 grams and 44 grams | Body weight ([1]; 150 mg/kg gavage once per day, day 4, individual mice, 150 mg/kg): 39 grams | Body weight ([1]; 150 mg/kg gavage once per day, day 7, individual mice, 150 mg/kg): 39 grams | Body weight ([1]; 150 mg/kg gavage once per day, day 10, individual mice, 150 mg/kg): 38 grams | Body weight ([1]; 150 mg/kg gavage once per day, day 13, individual mice, 150 mg/kg): 40 grams | Body weight ([1]; 150 mg/kg gavage once per day, day 16, individual mice, 150 mg/kg): 39 grams | Body weight ([1]; 150 mg/kg gavage once per day, day 19, individual mice, 150 mg/kg): 39 grams | Body weight ([1]; 150 mg/kg gavage once per day, day 22, individual mice, 150 mg/kg): 37 grams | Body weight ([1]; 150 mg/kg gavage once per day, day 25, individual mice, 150 mg/kg): 37 grams and 44 grams | Body weight ([1]; 150 mg/kg gavage once per day, day 28, individual mice, 150 mg/kg): 38 grams and 43 grams | Body weight ([1]; 150 mg/kg gavage once per day, day 31, individual mice, 150 mg/kg): 40 grams and 46 grams | Body weight ([1]; 150 mg/kg gavage once per day, day 34, individual mice, 150 mg/kg): 43 grams and 48 grams | Average body weight gain ([1]; 150 mg/kg gavage once per day): 5.2 ± 0.9 g | Body weight gain in 5 weeks ([1]; 150 mg/kg gavage once per day, 150 mg/kg): 6 grams and 5 grams and 4 grams | Body weight compared with vehicle ([1]; 5 weeks, BJ 75 and 150 mg/kg, BBR 150 mg/kg, Ibu 150 mg/kg): lower body weight than the db/db mice treated with the vehicle | AST ([2]; 150mg/kg, db/db mice, individual animals): 123.8 U/L | Fasting serum ASAT, ALAT, BUN, and Cr levels ([2]; mouse, in vivo): reduced fasting serum ASAT, ALAT, BUN, and Cr levels | BAT fat depot weight (Figure 4c) [3, 4]: 1.4827 and 0.5576 and 2.7679 and 1.5898 and 1.8729 and 1.268 and 0.7299 and 1.4681 and 1.4209 and 1.9195 | eWAT fat depot weight (Figure 4c) [3, 4]: 2.9499 and 3.004 and 3.3073 and 3.0683 and 2.8654 and 1.9039 and 2.9972 and 3.1786 and 2.5863 and 2.885 | iWAT fat depot weight (Figure 4c) [3, 4]: 2.9834 and 2.2193 and 4.5703 and 3.1934 and 4.0303 and 2.1465 and 2.6777 and 3.7948 and 2.2136 and 4.2859 | eWAT fat depot weight (Figure 4c) [3, 5]: 2.6032 and 2.4699 and 2.5757 and 2.9739 and 2.5582 and 2.4535 and 2.305 and 2.1485 and 2.4952 and 2.1171 | iWAT fat depot weight (Figure 4c) [3, 5]: 2.0087 and 2.2014 and 2.1848 and 3.5434 and 3.664 and 1.962 and 0.513 and 2.1562 and 2.8234 and 1.567 | Fat depots weight / body weight ([3]; 75 mg/kg for 35 days, 75 mg/kg): 17.3087% and 20.1428% and 17.1651% and 21.4638% and 17.3569% and 14.6768% and 23.7077% and 20.828% and 19.5629% and 16.4679% | Fat depots weight / body weight ([3]; 150 mg/kg for 35 days, 150 mg/kg): 11.5274% and 15.536% and 18.4944% and 12.6638% and 16.2402% and 14.3781% and 12.8992% and 19.8596% and 21.4381% and 12.5947% | Fat depots weight compared with vehicle ([3]; BJ 75 and 150 mg/kg, BBR 150 mg/kg, Ibu 150 mg/kg): lower fat depots weight than vehicle-treated db/db mice
